Measured values from patent US9522197B2, “Nanoparticles comprising a cyclodextrin and a biologically active molecule and uses thereof” (INNOUP FARMA, S.L., priority 2007, dated 2016).

Test: Quantification of cyclodextrin associated with the nanoparticles (HPLC-ELSD)
Assay type: physicochemical
Settings: PVM/MA 100 mg, cyclodextrin 25 mg, incubation 30 min; n=12
Description: The analysis was conducted in a 1100 series LC model chromatograph (Agilent, Waldbornn, Germany) and the data was analyzed in a Hewlett-Packard computer by means of the Chem-Station G2171 program (Agueros et al., J. Pharm. and Biomed. Anal., 39 (2005) 495-502).
For the sample analysis, the supernatants obtained after the purification process of the nanoparticles were diluted up to 10 ml with purified water. After adding the internal standard (PEG 6000), 1 ml aliquots of supernatant were taken as a sample. The samples were analyzed using a Zorbax Eclipse XDB-Phenyl column (Agilent 150 mm×2.1 mm) and a mixture of water/acetonitrile in a gradient (see Table 1) as a mobile phase at a flow of 0.25 ml/min.
The conditions of the detector (ELSD) were optimized until achieving the maximum sensitivity according to the gradient used in the mobile phase (Nebulizer Temperature: 115° C.; Nitrogen Flow: 3.2 ml/min). The chromatographic separation of the different cyclodextrins, of PVM/MA and of the internal standard (PEG 6000) was carried out in less than 15 minutes. The retention times were:
In the case of the quantification of aminated cyclodextrin [e.g. 6-monodeoxy-6-monoamino-β-cyclodextrin (NH-β-CD)] associated to the nanoparticles, a variant of the above described method was used to prevent the overlapping of the peaks of the cyclodextrin and the polymer. Therefore, the samples were analyzed using an NH2-Zorbax column (Agilent 4.6×150 mm, 5 μm), heated to 40° C. and a mixture of methanol/water (80/20 v/v) as a mobile phase at a flow of 1 ml/min. The conditions of the detector (ELSD) were the following: Nebulizer Temperature: 71° C. and Nitrogen Flow: 1.9 ml/min. The chromatographic separation of 6-monodeoxy-6-monoamino-β-cyclodextrin was carried out in less than 7 minutes. The retention time was 3.8±0.07 minutes.
Finally, the amount of cyclodextrin (CD) associated to the nanoparticles was calculated as the difference between the amount of CD initially added and the amount of CD quantified in the supernatants.

Molecule	Associated CD
2-hydroxypropyl-β-cyclodextrin [OH-β-CD]	~70 µg/mg
NC[C@H]1O[C@@H]2O[C@H]3[C@H](O)[C@@H](O)[C@@H](O[C@H]4[C@H](O)[C@@H](O)[C@@H](O[C@H]5[C@H](O)[C@@H](O)[C@@H](O[C@H]6[C@H](O)[C@@H](O)[C@@H](O[C@H]7[C@H](O)[C@@H](O)[C@@H](O[C@H]8[C@H](O)[C@@H](O)[C@@H](O[C@H]1[C@H](O)[C@H]2O)O[C@@H]8CO)O[C@@H]7CO)O[C@@H]6CO)O[C@@H]5CO)O[C@@H]4CO)O[C@@H]3CO [NH-β-CD, 6-monodeoxy-6-monoamino-β-cyclodextrin]	~70 µg/mg
OC[C@H]1O[C@@H]2O[C@H]3[C@H](O)[C@@H](O)[C@@H](O[C@H]4[C@H](O)[C@@H](O)[C@@H](O[C@H]5[C@H](O)[C@@H](O)[C@@H](O[C@H]6[C@H](O)[C@@H](O)[C@@H](O[C@H]7[C@H](O)[C@@H](O)[C@@H](O[C@H]8[C@H](O)[C@@H](O)[C@@H](O[C@H]1[C@H](O)[C@H]2O)O[C@@H]8CO)O[C@@H]7CO)O[C@@H]6CO)O[C@@H]5CO)O[C@@H]4CO)O[C@@H]3CO [β-CD, β-cyclodextrin]	about 90 μg/mg
